Measurements from PMC5289826 (PLoS ONE, 2017).

Tests used:
[1] = test system: T1, recombinant human 11β-HSD2; assay: 11β-HSD2 enzyme activity in cell lysates (cortisol to cortisone); assay type: biochemical; details: 1 μM compound; lysates of HEK-293 cells; 50 nM cortisol
T1 construct: expressed in transfected cells
Description: (§1) Human embryonic kidney (HEK-293) cells either stably expressing human 11β-HSD1 and H6PDH (HHH7 clone, [38]) or 11β-HSD2 (AT8 clone, [39]), or transiently expressing human 17β-HSD1 or 17β-HSD2, were cultivated in Dulbecco’s modified Eagle medium (DMEM) containing 4.5 g/L glucose, 10% fetal bovine serum, 100 U/mL penicillin, 0.1 mg/mL streptomycin, 1 × MEM nonessential amino acids, and 10 mM HEPES buffer, pH 7.4. Cells were washed with phosphate-buffered saline (PBS), centrifuged for 4 min at 150 × g, and the cell pellets were snap frozen on dry ice and stored at −80°C until further use.
(§2) Cell lysates were resuspended in TS2 buffer (100 mM NaCl, 1 mM EGTA, 1 mM EDTA, 1 mM MgCl2, 250 mM sucrose, 20 mM Tris-HCl, pH 7.4), followed by sonication at 4°C using a Hielscher UP50H ultrasonic processor (0.3 cycle, 20 amplitude %, 20 impulses; Hielscher Ultrasonics GmbH, Teltow Germany). Cell lysates, reaction mixture, and either vehicle (DMSO) or inhibitor were incubated for 10 min at 37°C in a final volume of 22.2 μL. The solvent concentration was 0.1%. […] 11β-HSD2 activity was measured in the presence of 50 nM cortisol and 500 μM NAD^+. An amount of 50 nCi of radiolabeled tracer substrate was included in the experiments. […] The bands of the corresponding steroids were excised, followed by scintillation counting and calculation of the amount of substrate conversion. Data were obtained from at least three independent measurements. Glycyrrhetinic acid (CTRL 1) was used as positive control for 11β-HSD1 and 11β-HSD2 inhibition, apigenin (CTRL 2) for 17β-HSD1, and compound 22 from Vuorinen et al. [40](CTRL 3) for 17β-HSD2 inhibition.

[2] = molecular target: T2, recombinant human 11β-HSD1 (Homo sapiens, UniProt P28845); assay: 11β-HSD1 enzyme activity in cell lysates (cortisone to cortisol, radiolabeled tracer, TLC); assay type: biochemical; details: for 11β-HSD1 Residual activity, % of control at 100 nM: 100 nM compound; for 11β-HSD1 Residual activity, % of control at 100 nM / 11β-HSD1 Residual activity, % of control at 1 μM: lysates of HEK-293 cells, 200 nM cortisone, mean of three experiments; for 11β-HSD1 Residual activity, % of control at 1 μM: 1 μM compound; for activity towards 11β-HSD1, effect of substituent (in words): SAR comparison within the series
T2 construct: expressed in transfected cells
Description: as §1, §2

[3] = test system: T3, human 11β-HSD1; assay: 11β-HSD1 activity assay in intact HEK-293 cells co-expressing 11β-HSD1 and H6PDH; assay type: cell-based; details: 100 nM and 1 μM compound; intact HHH7 cells; 200 nM cortisone; 30 min
T3 construct: expressed in transfected cells
Description: HEK-293 cells co-expressing 11β-HSD1 and H6PDH were seeded in poly-L-lysine coated 96 well-plates (30’000 cells/well) and cultivated in DMEM. At 24 h post-seeding, the cells were washed with charcoal-treated serum-free DMEM (cDMEM) and incubated for 3 h in 100 μL cDMEM. Then, the medium was aspirated and replaced by 30 μL cDMEM. […] The reactions were terminated after 30 min of incubation, followed by analysis of substrate conversion as described above. Data were obtained from at least three independent measurements.

[4] = test system: T4, human 17β-HSD1; assay: 17β-HSD1 enzyme activity in cell lysates (estrone to estradiol); assay type: biochemical; details: 1 μM, 200 nM estrone
T4 construct: expressed in transfected cells; host or cells: HEK-293 (transient)
Description: as §1, §2

[5] = test system: human skin biopsies; assay: Dermal total collagen content in ex vivo human skin biopsies (Picrosirius Red); details: for effect on cortisone-induced collagen decrease (in words): 10 μM or 100 μM inhibitor topically, 6 days, 100 nM cortisone for 5 days
Description: (§3) Ex vivo skin experiments were performed as contract research by Cutech Biotechnology following the Helsinki declaration and who obtained permission as well as informed consent from the patient (Padova, Italy). Human skin from abdominal plastic surgery of a donor was used. Skin samples were cut in pieces of approximately 8 × 3 mm (diameter × thickness) and cultured in an air-liquid interface in a perforated ring of stainless steel in contact with culture medium (modified Williams’ E medium, Sigma Aldrich) up to day 6. The culture medium was renewed on day 0 and day 3. The test compounds were applied topically and renewed daily. The application was performed as follows: skin biopsies were gently cleaned with a cotton pad and 4 μL of 10 μM or 100 μM test compound were applied on top of each piece and covered with a 6 mm (diameter) delivery membrane (CoTran 9728 Controlled Caliper Ethylene Vinyl Acetate Membrane, 3M, St. Paul, MN, USA).
Skin viability was assessed in two skin biopsies after 6 days of treatment using methylthiazolyldiphenyl‐tetrazolium bromide (MTT, Sigma Aldrich) staining. Total dermal collagen in skin sections was semi-quantitatively evaluated by Picrosirius Red histochemical staining (using Picric Acid, Fast Green FCF and Direct Red from Sigma Aldrich) that dyes collagen fibers in purple-red. […] The evaluation was performed by estimating both color intensity and distribution using IMAGE J (NIH) analysis software, allowing to obtain a semi-quantitative evaluation of dermal collagen (collagen score). Two slides of each skin sample were processed by image acquisition and related analysis (i.e. 12 images for each treatment).

[6] = test system: human skin biopsies; assay: Dermal collagen III content in UV exposed ex vivo human skin biopsies (anti-collagen III antibody)
Description: as §3
Skin biopsies were subjected to UV irradiation using a BIO-SUN system (Vilber Lourmat, Eberhardzell, Germany). The system had the following specifications: Lamp wave length: UVB 312 nm (range 280–320 nm) and UVA 365 nm (range 355–375 nm), range of measure (irradiance): accuracy and linearity ± 0.2%, range of programmed energy: 0.1 to 99.99 J/cm^2, intensity: UVA (365 nm) 5 mW/cm^2, UVB (312 nm) 3 mW/cm^2, UVA + UVB: 5.6 + 3.2 mW/cm^2, respectively. The selected UV irradiation intensities were 40% and 80% of the Biological Effective Dose (BED) of 7.5 J/cm^2 UV daylight as described by Del Bino et al.. UV 40% BED = 3.0 J/cm^2 (= 0.1 J/cm^2 UVB + 2.9 J/cm^2 UVA); UV 80% = 6.0 J/cm^2 (= 0.2 J/cm^2 UVB + 5.8 J/cm^2 UVA).
Furthermore, in a preliminary set of experiments, skin biopsies were UV irradiated at 3.0 J/cm^2 and 6.0 J/cm^2 and treated topically with 4 μL of 10 μM or 100 μM of the respective inhibitor, followed by determination of collagen III content using a mouse monoclonal anti-collagen III antibody (Sigma Aldrich).

[7] = molecular target: T5, endogenous 11β-HSD1 (Homo sapiens, UniProt P28845); assay: 11β-HSD1-dependent cortisol formation in intact primary human keratinocytes; assay type: cell-based; details: for inhibition of cortisol formation (in words): 1 μM compound, primary human keratinocytes, 1 μM cortisone, 24 h; for IC50: read-out: estimated IC50 of cortisol formation
T5 construct: intact primary human keratinocytes expressing endogenous 11β-HSD1; host or cells: primary human epidermal keratinocytes
Description: Human epidermal keratinocytes obtained from CELLnTEC advanced Cell Systems (Berne, Switzerland) were maintained in CnT-Prime medium (http://cellntec.com/products/cnt-pr/#datasheet) at 37°C. Cells were subcultivated before reaching confluence. After reaching 90% of confluence, the keratinocytes were washed twice with PBS prior to change to cortisol-free CnT-Prime medium (custom-made by CELLnTEC). […] Compound CAS 1009373-58-3 (CTRL 4, Merck Millipore, Darmstadt, Germany) was used as positive control. After 24 h cell culture supernatants were collected and the amount of cortisol produced was measured on a Mulstiskan Ascent plate reader (MTX Lab Systems, Bradenton, FL) using the Cortisol Parameter Assay Kit (R&D Systems, Minneapolis, MN) following the instructions by the manufacturer. Cell viability was assessed using PrestoBlue® Cell Viability Reagent (Invitrogen, Carlsbad, CA) according to the manufacturer’s instructions.

[8] = test system: T6, human 17β-HSD2; assay: 17β-HSD2 enzyme activity in cell lysates (estradiol to estrone); assay type: biochemical; details: 1 μM, 200 nM estradiol
T6 construct: expressed in transfected cells; host or cells: HEK-293 (transient)
Description: as §1, §2

[9] = 100 μM, 6.0 J/cm^2 UV irradiation

T2 sequence (P28845 whole entry): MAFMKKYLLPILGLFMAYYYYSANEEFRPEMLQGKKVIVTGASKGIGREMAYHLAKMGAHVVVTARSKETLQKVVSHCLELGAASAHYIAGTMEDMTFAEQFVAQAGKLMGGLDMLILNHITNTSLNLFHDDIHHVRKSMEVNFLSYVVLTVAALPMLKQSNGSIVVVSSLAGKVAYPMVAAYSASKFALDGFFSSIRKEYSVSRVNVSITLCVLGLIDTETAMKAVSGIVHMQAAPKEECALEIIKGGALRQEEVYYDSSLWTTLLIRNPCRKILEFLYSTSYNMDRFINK
T5 sequence (P28845 whole entry): as above

Row | SMILES | melting point | IC50 [2] | 11β-HSD1 Residual activity, % of control at 100 nM [2] | 11β-HSD1 Residual activity, % of control at 1 μM [2] | inhibition of cortisol formation (in words) [7] | IC50 [7] | activity towards 11β-HSD1, effect of substituent (in words) ([2]; cell lysates) | activity towards 11β-HSD1 (in words) ([2]; at 1 μM, cell lysates) | 11β-HSD2 Residual activity, % of control at 1 μM [1] | inhibition of 11β-HSD1 in intact cells (in words) [3] | inhibition of 17β-HSD1 (in words) [4] | effect on cortisone-induced collagen decrease (in words) [5] | collagen III vs UV treated vehicle control (in words) ([6]; 10 μM, UV irradiated biopsies) | collagen III vs UV treated vehicle control (in words) [6, 9] | inhibition of 17β-HSD2 (in words) [8] | decrease in dermal collagen ([5]; 10 nM, 100 nM and 1 μM cortisone, p<0.01)
1 | Cc1ccc(-c2cccc(C(=O)N3CCC(C)CC3)c2)cn1 [2b, (4-Methylpiperidin-1-yl)(3-(6-methylpyridin-3-yl)phenyl)methanone] |  | 42.2 nM | 36 % of control | 5 % of control | almost completely inhibited | ≤ 100 nM |  |  | > 90 % of control | almost completely inhibited | selective | prevented the cortisone-induced collagen decrease | did not result in significant changes | significantly higher collagen III levels | selective | 
2 | Cc1ccc(-c2cccc(C(=O)N3CCC[C@H]3C(N)=O)c2)cc1F [3f, (S)-1-(3’-fluoro-4’-methyl-[1,1’-biphenyl]-3-carbonyl)-pyrrolidine-2-carboxamide] | 73 to 75 °C |  | > 90 % of control | > 90 % of control |  |  | abolished the activity |  | > 90 % of control |  |  |  |  |  |  | 
3 | C[C@]12CCC(=O)C=C1CC[C@@H]1[C@@H]2C(=O)C[C@@]2(C)[C@H]1CC[C@]2(O)C(=O)CO [cortisone, reference compound] |  |  |  |  |  |  |  |  |  |  |  |  |  |  |  | 20–26%
4 | NC(=O)[C@@H]1CCCN1C(=O)c1cccc(-c2ccccc2Cl)c1 [6f, (S)-1-(2’-Chloro-[1,1’-biphenyl]-3-carbonyl)-pyrrolidine-2-carboxamide] |  |  | > 90 % of control | > 90 % of control |  |  |  | inactive | > 90 % of control |  |  |  |  |  |  | 

The next lines start with results.

Row | melting point | IC50 [2] | 11β-HSD1 Residual activity, % of control at 100 nM [2] | 11β-HSD1 Residual activity, % of control at 1 μM [2] | inhibition of cortisol formation (in words) [7] | IC50 [7] | activity towards 11β-HSD1, effect of substituent (in words) ([2]; cell lysates) | activity towards 11β-HSD1 (in words) ([2]; at 1 μM, cell lysates) | SMILES | 11β-HSD2 Residual activity, % of control at 1 μM [1] | inhibition of 11β-HSD1 in intact cells (in words) [3] | inhibition of 17β-HSD1 (in words) [4] | effect on cortisone-induced collagen decrease (in words) [5] | collagen III vs UV treated vehicle control (in words) ([6]; 10 μM, UV irradiated biopsies) | collagen III vs UV treated vehicle control (in words) [6, 9] | inhibition of 17β-HSD2 (in words) [8] | decrease in dermal collagen ([5]; 10 nM, 100 nM and 1 μM cortisone, p<0.01)
5 | 109 to 111 °C | 37.4 nM | 17 % of control |  |  |  |  |  | Cc1ccc(-c2cccc(C(=O)N3CCCCCC3)c2)cc1 [1e, Azepan-1-yl(4’-methyl-[1,1’-biphenyl]-3-yl)methanone] | > 90 % of control |  |  |  |  |  |  | 
6 | 116 to 117 °C |  | 50 % of control | 2 % of control |  |  |  |  | O=C(c1cccc(-c2ccc(Cl)cc2)c1)N1CCCCCC1 [5e, Azepan-1-yl(4’-chloro-[1,1’-biphenyl]-3-yl)methanone] | > 90 % of control |  |  |  |  |  |  | 
7 |  | 23.4 nM | 21 % of control |  | almost completely inhibited | ≤ 100 nM |  |  | O=C(c1cccc(-c2ccccc2)c1)N1CCCCCC1 [12e, [1,1’-Biphenyl]-3-yl(azepan-1-yl)methanone] | > 90 % of control | almost completely inhibited | selective | prevented the cortisone-induced collagen decrease | did not result in significant changes | significantly higher collagen III levels | selective | 
8 | 184 to 185 °C |  | 28 % of control |  |  |  |  |  | O=C(c1cccc(-c2ccc(O)cc2)c1)N1CCCCCC1 [7e, Azepan-1-yl(4’-hydroxy-[1,1’-biphenyl]-3-yl)methanone] | > 90 % of control |  |  |  |  |  |  | 
9 |  | 40.4 nM | 38 % of control | 5 % of control | almost completely inhibited | ≤ 100 nM |  |  | CC1CCN(C(=O)c2cccc(-c3ccc(O)cc3)c2)CC1 [7b, (4’-Hydroxy-[1,1’-biphenyl]-3-yl)(4-methylpiperidin-1-yl)methanone] | > 90 % of control | almost completely inhibited | selective |  |  |  | selective | 
10 | 188 to 190 °C |  | 65 % of control | 19 % of control |  |  | substantial loss of activity |  | CC1CCN(C(=O)c2cccc(-c3ccc(C(N)=O)cc3)c2)CC1 [9b, 3’-(4-methylpiperidine-1-carbonyl)-[1,1’-biphenyl]-4-carboxamide] | > 90 % of control |  |  |  |  |  |  | 
